According to patent US20150133388A1, “ACETYLATED CRYSTALLIN POLYPEPTIDES AND MIMETICS THEREOF AS THERAPEUTIC AGENTS” (Case Western Reserve University, priority 2012, published 2015):
No end group written: not given here.

T1: citrate synthase (CS) (Sus scrofa, UniProt P00889)
T1 construct: purchased Sigma-Aldrich Chemical Co. (St. Louis, Mo.)
T1 sequence (P00889 28-464): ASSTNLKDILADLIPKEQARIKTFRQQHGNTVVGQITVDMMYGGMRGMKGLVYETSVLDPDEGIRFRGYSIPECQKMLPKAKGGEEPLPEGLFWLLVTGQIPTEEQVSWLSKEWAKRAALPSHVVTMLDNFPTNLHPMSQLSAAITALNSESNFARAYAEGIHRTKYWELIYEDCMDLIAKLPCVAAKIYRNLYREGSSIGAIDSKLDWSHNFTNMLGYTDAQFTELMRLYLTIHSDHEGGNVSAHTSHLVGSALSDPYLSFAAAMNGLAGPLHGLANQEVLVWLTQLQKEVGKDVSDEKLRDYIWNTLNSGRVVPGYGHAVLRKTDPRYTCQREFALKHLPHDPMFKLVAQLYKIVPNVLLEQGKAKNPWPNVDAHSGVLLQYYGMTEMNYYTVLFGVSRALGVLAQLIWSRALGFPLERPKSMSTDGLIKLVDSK


Tests used:
[1] = system: lens epithelial cells; test: Lens epithelial cell apoptosis in selenite cataract (in situ TUNEL); assay type: in vivo, rat; settings: multiple 10 μg injections
Procedure: (§1) Neonatal Sprague-Dawley rat pups (12 days old) were used for these experiments. The pups in the experimental groups received a single subcutaneous injection of sodium selenite (4 mg/Kg body weight) on day 12. Peptides diluted from a stock in sterile water (dissolved by adding 2 μl of 10 N NaOH to a 1.0 ml stock) were injected intraperitoneally (at 2.5, 5, or 10 μg/animal) 6 h prior to selenite injection (single injection). When multiple injections were performed, one pre-selenite injection was administered, as above, followed by four additional injections on four consecutive days after the sodium selenite injection. One group served as the control (no treatment) and another as the selenite control (no peptide injection). The lenses were examined on day 17 (when the pups had opened their eyes) using a slit lamp microscope (after dilating the pupil through topical application of tropicamide) and photographed. For hematoxylin and eosin (H & E) and TUNEL staining, eyes were fixed immediately after enucleation in a 10% buffered formalin solution overnight.

[2] = system: lens protein aggregation; test: Histology (H&E) of lens protein aggregation in selenite cataract; assay type: in vivo, rat; settings: multiple injections 10 μg
Procedure: as §1

[3] = system: Human lens epithelial cells (HLE); test: Hyperthermia-induced apoptosis in HLE cells (Hoechst stain); assay type: cell-based; settings: 43° C. 1 h; for rate of apoptosis after peptide pretreatment: 4 μg/ml in BP 4 h, without peptide nearly 40%
Procedure: (§2) Human lens epithelial cells (HLE) were isolated from the lens of a donor and cultured in DMEM supplemented with 10% FBS as previously described for mouse lens epithelial cells. Cells between passages 5 and 6 were used for the experiments. Chinese hamster ovary (CHO) cells were cultured in Ham's F12 medium. The α-crystallin peptides were mixed with a cationic lipid, BIOPORTER (BP), according to the manufacturer's instructions (Polyplus transfection reagent, Illkirch, France). When the cultures reached 70-80% confluence, the cells were treated with BP either alone or with the peptides in serumfree medium and incubated for 4 h at 37° C. in a humidified 5% CO2 atmosphere. The cells were then washed with PBS and incubated at 43° C. for 1 h (thermal stress), followed by incubation at 37° C. for 16 h for recovery. The percentage of apoptotic cells was determined by staining the cells with Hoechst. Cells incubated at 37° C. without thermal stress were used as controls.

[4] = system: caspase-3; test: Caspase-3 activity in thermally stressed CHO cells; assay type: cell-based, Chinese hamster; settings: 4 μg/ml
Procedure: (§3) Cells were lysed in cell lysis buffer (Cell signaling), and lenses were homogenized in 50 mM Tris-buffered saline. Both buffers contained a protease inhibitor cocktail (1:100 dilution). An equal volume of a fluorogenic substrate solution[2× reaction buffer: 10 mM DTT and 50 μM Ac-DEVD-AFC (for caspase-3) or Ac-LEHDAFC (for caspase-9)] was added to each lysate. The lysates were then incubated for 2 h at 37° C. in the dark. The samples were analyzed with a […] spectrofluorometer (HORIBA Scientific, Edison, N.J.) at excitation/emission wavelengths 400/505 nm.

[5] = system: selenite-induced cataracts; test: Selenite-induced cataract in rat pups (slit lamp); assay type: in vivo
Procedure: as §1

[6] = system: CHO cells; test: Hyperthermia-induced apoptosis in CHO cells (Hoechst stain); assay type: cell-based, Chinese hamster; settings: for inhibition of apoptosis: untreated rate ~28%
Procedure: as §2

[7] = system: caspase-9; test: Caspase-9 activity in thermally stressed CHO cells; assay type: cell-based, Chinese hamster; settings: 4 μg/ml
Procedure: as §3

[8] = system: insulin (IN); test: Chaperone assay, client protein insulin; assay type: biochemical
Procedure: (§4) Chaperone assays were performed as previously described. The ratios of the peptides: client proteins (w/w) were as follows: citrate synthase, 1:2.5; insulin, 1:10; βL-crystallin, 1:1.5; and γ-crystallin, 1:1. The scrambled αA-crystallin peptide was tested in certain assays at peptide: client protein ratios as follows: citrate synthase, 1:1.25, insulin, 1:5 to determine peptide specificity.

[9] = system: lens epithelial cells; test: Calcimycin-induced apoptosis in organ-cultured mouse lenses (TUNEL); assay type: cell-based; settings: 5 μM calcimycin
Procedure: The animal experiments conformed to the ARVO Statement for the Use of Animals in Ophthalmic and Vision Research and were approved by the CWRU's Animal Care and Use Committee. Lenses were dissected from the eyes of ˜3-month-old C57B1/6 mice and maintained in artificial aqueous humor (AAH) (113 mM NaCl, 4.5 mM KCl, 1 mM MgCl2, 1.5 mM CaCl2, 6 mM D-glucose, 10 mM HEPES, 20 mM NaHCO3, and 1:1,000 penicillin/streptomycin, pH 7.3). Lenses that developed opacification within 24 h were discarded. Native and acetyl αA- and αB crystallin peptides were added to the culture medium at a concentration of 50 μg/3.0 ml, followed by incubation of the lenses for 16 h. The medium was replaced with fresh medium containing 5 μM calcimycin, and the lenses were incubated for an additional 6 h. After this incubation period, the lenses were thoroughly washed with PBS, fixed in 1% buffered formalin overnight, and embedded in paraffin. Microtome sections (5 μm) were subsequently rehydrated and subjected to antigen retrieval via microwave irradiation in 10 mM citrate buffer (pH 6.0). Apoptosis was measured using the In situ Cell Death Detection Kit (Roche, Indianapolis, Ind.) according to the manufacturer's instructions. The sections were counterstained with DAPI to visualize nuclei.

[10] = biological target: T1, citrate synthase (CS); test: Chaperone assay, client protein citrate synthase; assay type: biochemical
Procedure: as §4

[11] = system: γ-crystallin (GC); test: Chaperone assay, client protein γ-crystallin; assay type: biochemical; settings: peptide:γ-crystallin 1:1 (w/w)
Procedure: as §4

[12] = system: βL-crystallin (BLC); test: Chaperone assay, client protein βL-crystallin; assay type: biochemical; settings: peptide:βL-crystallin 1:1.5 (w/w)
Procedure: as §4

[13] = biological target: the above four client proteins (citrate synthase, insulin, βL-crystallin, γ-crystallin); test: cell-based or functional assay
[14] = multiple i.p. injections 5 μg/animal
[15] = multiple i.p. injections 10 μg/animal
[16] = single i.p. injection 2.5 μg/animal 6 h prior to selenite
[17] = 1 μg/ml peptide in BIOPORTER 4 h, 43° C. 1 h
[18] = 2 μg/ml peptide in BIOPORTER 4 h, 43° C. 1 h
[19] = 4 μg/ml peptide in BIOPORTER 4 h, 43° C. 1 h
[20] = single i.p. injection 10 μg/animal 6 h prior to selenite

Molecule	inhibition of lens epithelial cell apoptosis (TUNEL) [1]	inhibition of protein aggregation in the lens center (H&E) [2]	rate of apoptosis after peptide pretreatment [3]	inhibition of caspase-3 activity [4]	inhibition of cataract development [5, 14]	inhibition of cataract development [5, 15]	inhibition of cataract development [5, 16]	inhibition of apoptosis [6, 17]	inhibition of apoptosis [6, 18]	inhibition of apoptosis [6, 19]	inhibition of caspase-9 activity [7]	inhibition of cataract development [5, 20]	other results
69DKFVIFLDVKHFSPEDLTVK88 (listed as Homo sapiens) [αA-native peptide]	inhibited apoptosis	inhibited	22%	80%	strongly inhibited cataracts	entirely inhibited cataracts	ineffective	12%	14%	17%	51%	–	–
DFVIDSPFKLVDLEKVHFTK (listed as Homo sapiens) [αA-scrambled peptide]	–	–	–	–	–	entirely ineffective	–	–	–	–	–	–	inhibition of apoptosis (in words) ([3]; 4 μg/ml): did not inhibit apoptosis; chaperone function ([8]; peptide:IN 1:5, two times higher concentration than native and acetyl peptides): did not function as a chaperone; inhibition of apoptosis (in words) ([6]; 4 μg/ml, 43° C. 1 h): did not inhibit apoptosis; protection from calcimycin-induced apoptosis (in words) [9]: did not protect the cells; chaperone function ([10]; peptide:CS 1:1.25, two times higher concentration than native and acetyl peptides): did not function as a chaperone
73DRFSVNLDVKHFSPEELKVKV93 (listed as Homo sapiens) [αB-native peptide]	inhibited apoptosis	inhibited	18%	80%	–	inhibited cataract development	ineffective	8%	12%	17%	51%	strongly inhibited cataract development	–
69DK (acetyl) FVIFLDVKHFSPEDLTVK88 (DK(Ac)FVIFLDVKHFSPEDLTVK; listed as Homo sapiens) [αA-acetyl peptide]	inhibited apoptosis	inhibited	25%	90%	strongly inhibited cataracts	entirely inhibited cataracts	ineffective	–	–	–	53%	more effective than the native peptide	chaperone function compared with the native peptide ([8]; peptide:insulin 1:10 (w/w)): significantly better; inhibition of cataract development ([5]; multiple i.p. injections 2.5 μg/animal): partially inhibited cataract development; inhibition of cataract development ([5]; single i.p. injection 5 μg/animal 6 h prior to selenite): more effective than the native peptide; more effective than the native peptide in inhibiting apoptosis ([6]; at the 2 and 4 μg concentrations): at least 5%; chaperone function compared with the native peptide [11]: significantly better; chaperone function compared with the native peptide [12]: not different; chaperone function compared with the native peptide ([10]; peptide:citrate synthase 1:2.5 (w/w)): significantly better
DRFSVNLDVKHFSPEELKVK(Ac)V [αB-crystallin acetyl peptide 73…(acetyl)V93]	–	–	–	–	–	–	–	–	–	–	–	–	chaperone function, against the native αB peptide (percent weaker) [13]: 10 to 30%
